Results published in PMC6736568, “Discovery of Novel Anti-cryptosporidial Activities From Natural Products by in vitro High-Throughput Phenotypic Screening” (Frontiers in Microbiology, 2019).
Where a name gives a salt, the structure may show the parent alone. Read-outs that look alike come from different tables or passages of the source.

Tests used:
[1] = system: Cryptosporidium parvum; experiment: qRT-PCR assay of the growth of C. parvum in vitro in HCT-8 host cells (primary and secondary screening, EC50); assay type: cell-based; settings: Cryptosporidium parvum, HCT-8; for inhibition at 3.3 µM: secondary screening at 3.3 uM, read-out: % Inhibition (3.3 uM)
[2] = system: HCT-8 host cells (Hs18S)
[3] = in vitro
[4] = primary screening at 10 uM, read-out: Inhibition (%)
[5] = primary screening at 10 uM, treated vs control

SMILES | inhibition at 10 µM [1, 4] | Hs18S ΔCT ([2]; human, 41 h, 10 μM) | cytotoxicity at 41 h, 10 µM ([3]; human) | inhibition at 3.3 µM [1] | Hs18S ΔCT [2, 5] | cytotoxicity at 10 µM [3] | inhibition at 10 µM [1] | cytotoxicity at 41 h, 10 µM [3]
CO[C@H]1C[C@H](O[C@H]2[C@H](C)[C@@H](O[C@@H]3O[C@H](C)C[C@H](N(C)C)[C@H]3O)[C@@H](C)C[C@@]3(CO3)C(=O)[C@H](C)[C@@H](O)[C@@H](C)[C@@H](C)OC(=O)[C@@H]2C)O[C@@H](C)[C@@H]1O [OLEANDOMYCIN PHOSPHATE] | 17.6% | 3.02 | 87.6% | – | – | – | – | –
COc1c2ccoc2cc2oc(C)cc(=O)c12 [VISNAGIN] | 15.1% | -0.27 | -20.7% | – | – | – | – | –
CO[C@H]1C[C@@H]2CC[C@@H](C)[C@@](O)(O2)C(=O)C(=O)N2CCCC[C@H]2C(=O)O[C@H]([C@H](C)C[C@@H]2CC[C@@H](O)[C@H](OC)C2)CC(=O)[C@H](C)/C=C(\C)[C@@H](O)[C@@H](OC)C(=O)[C@H](C)C[C@H](C)/C=C/C=C/C=C/1C [SIROLIMUS] | 76.6% | 0.94 | 47.9% | 35% | – | – | – | –
C[n+]1cc2c3c(ccc2c2ccc4cc5c(cc4c21)OCO5)OCO3 [SANGUINARINE SULFATE] | 18.6% | – | – | – | 0.07 | 4.9% | – | –
CN1[C@@H]2CC[C@H]1C[C@@H](OC(=O)C(CO)c1ccccc1)C2 (some centres unmarked) [ATROPINE SULFATE] | 3.7% | – | – | – | 0.26 | 16.3% | – | –
CC(=O)O[C@H]1CC[C@@]2(C)C(=CC(=O)[C@H]3[C@@H]4CC[C@H]([C@H](C)CCCC(C)C)[C@@]4(C)CC[C@@H]32)C1 [7-OXOCHOLESTERYL ACETATE] | -24.9% | -0.20 | -15.2% | – | – | – | – | –
Cc1cc(O)cc(O)c1C(=O)O [ORSELLINIC ACID] | 37.5% | – | -19.3% | – | -0.25 | – | – | –
CC[C@H](/C=C/[C@@H](C)[C@H]1CC[C@H]2[C@@H]3CC=C4C[C@@H](O)CC[C@]4(C)[C@H]3CC[C@]12C)C(C)C [STIGMASTEROL] | -18% | – | – | – | 0.96 | 48.6% | – | –
COC(=O)C[C@H]1C(C)(C)C(=O)[C@@H]2CC3=C4CC(=O)O[C@@H](c5ccoc5)[C@]4(C)CC[C@@H]3[C@@]1(C)C2=O [MEXICANOLIDE] | 31.5% | -0.17 | -12.3% | – | – | – | – | –
CC1(C)[C@@H](O)CC[C@]2(C)[C@H]3C(=O)C=C4[C@H]5C[C@@](C)(C(=O)O)CC[C@]5(C)CC[C@@]4(C)[C@]3(C)CC[C@@H]12 | -12.7% | – | – | – | -0.01 | -0.5% | – | –
COc1cc(C(=O)O)cc(OC)c1O [SYRINGIC ACID] | 3.63% | – | – | – | -0.26 | -20% | – | –
CC(=O)OC1CCC23CC1(C)CCC2C(C)(C)CC3OC(C)=O (centres unmarked) [CLOVANEDIOL DIACETATE] | -0.83% | 0.55 | 31.9% | – | – | – | – | –
CC(=O)Oc1ccc(O)cc1 [4-ACETOXYPHENOL] | -14.1% | 0.21 | 13.4% | – | – | – | – | –
OCc1c[nH]c2ccccc12 [INDOLE-3-CARBINOL] | 0.77% | – | -31.7% | – | -0.40 | – | – | –
COc1cc(-c2coc3cc(OC)c(OC)c(OC)c3c2=O)cc(OC)c1OC [IRIGENIN TRIMETHYL ETHER] | 13.7% | – | – | – | -0.48 | -39.9% | – | –
C[C@@H]1C(=O)O[C@H]2C[C@@]34[C@H]5C[C@@H](C(C)(C)C)[C@]36[C@@H](OC(=O)[C@@H]6O)O[C@@]4(C(=O)O5)[C@]21O [GINKGOLIDE A] | 37.5% | – | – | – | 0.10 | 6.6% | – | –
O=C(/C=C/c1ccc(O)c(O)c1)O[C@H](Cc1ccc(O)c(O)c1)C(=O)O [ROSMARINIC ACID] | 37.3% | -0.04 | -3.1% | – | – | – | – | –
O=C(O)/C=C(\CC(=O)O)C(=O)O [ACONITIC ACID] | -3.59% | -0.01 | -0.7% | – | – | – | – | –
CC[C@H]1OC(=O)[C@H](C)[C@@H](O[C@H]2C[C@@](C)(OC)[C@@H](O)[C@H](C)O2)[C@H](C)[C@@H](O[C@@H]2O[C@H](C)C[C@H](N(C)C)[C@H]2O)[C@](C)(O)C[C@@H](C)C(=O)[C@H](C)[C@@H](O)[C@]1(C)O [ERYTHROMYCIN] | 94.6% | 0.62 | 35% | -13% | – | – | – | –
CN1C(=O)CC[C@H]1c1cccnc1 [COTININE] | 42.6% | 0.41 | 24.7% | – | – | – | – | –
COc1ccc(C(C)=O)c(OC)c1 [PEONOL METHYL ETHER] | 18.9% | -0.31 | -24.3% | – | – | – | – | –
O=C1O[C@H]([C@@H](O)CO)C(O)=C1O [ASCORBIC ACID] | 12% | 0.44 | 26.2% | – | – | – | – | –
O=C(O)c1cc(O)c2cccc(O)c2n1 [X[…]] | – | – | – | – | -0.32 | -24.4% | 20.3% | –

SMILES | inhibition at 10 µM [1, 4] | Hs18S ΔCT ([2]; human, 41 h, 10 μM) | cytotoxicity at 41 h, 10 µM ([3]; human) | inhibition at 3.3 µM [1] | Hs18S ΔCT [2, 5] | cytotoxicity at 10 µM [3] | inhibition at 10 µM [1] | cytotoxicity at 41 h, 10 µM [3]
COc1ccc2[nH]cc(CCNC(C)=O)c2c1 [MELATONIN] | -62.2% | -1.56 | -196% | – | – | – | – | –
O=C(O)[C@H]1O[C@@H](Oc2cc3oc(-c4ccccc4)cc(=O)c3c(O)c2O)[C@H](O)[C@@H](O)[C@@H]1O [BAICALIN] | -13% | – | -17.1% | – | -0.23 | – | – | –
COc1cc(OC)c2c(=O)cc(-c3ccccc3)oc2c1 [CHRYSIN DIMETHYL ETHER] | 90.3% | – | – | -69% | -0.12 | -8.6% | – | –
CC(C)=CCc1c2c(c3occ(-c4ccc(O)cc4)c(=O)c3c1O)C=CC(C)(C)O2 [OSAJIN] | -1.77% | -1.06 | -108% | – | – | – | – | –
CC12CCCC(O)(C1)C1CC(C)(C)C1CC2 (stereo not drawn) [beta-CARYOPHYLLENE ALCOHOL] | 24.2% | 0.03 | 1.9% | – | – | – | – | –
COC(=O)c1c(C)c2c(c(C)c1O)OC(=O)c1c(C)c(Cl)c(O)c(Cl)c1O2 [LEOIDIN] | 16.7% | 0.41 | 24.9% | – | – | – | – | –
CCCCCC1C(=O)CCC1CC(=O)OC (centres unmarked) [DIHYDROJASMONIC ACID, METHYL ESTER] | -8.77% | -0.06 | -4% | – | – | – | – | –
O=c1cc(-c2ccccc2)oc2ccc(O)cc12 [6-HYDROXYFLAVONE] | 40% | 0.08 | 5.6% | – | – | – | – | –
CC[C@H](CC[C@@H](C)[C@H]1CC[C@H]2[C@@H]3CC=C4C[C@@H](OC(C)=O)CC[C@]4(C)[C@H]3CC[C@]12C)C(C)C [SITOSTERYL ACETATE] | -3.86% | -0.17 | -12.4% | – | – | – | – | –
C[C@]12CC[C@H]3C(=CCc4cc(O)ccc43)[C@@H]1CCC2=O [EQUILIN] | -53.6% | – | – | – | -0.60 | – | – | -51.5%
C[C@H]1CC[C@]2(NC1)O[C@H]1C[C@H]3[C@@H]4CC[C@H]5C[C@@H](O[C@@H]6O[C@H](CO)[C@H](O[C@@H]7O[C@H](CO)[C@@H](O)[C@H](O[C@@H]8OC[C@@H](O)[C@H](O)[C@H]8O)[C@H]7O[C@@H]7O[C@H](CO)[C@@H](O)[C@H](O)[C@H]7O)[C@H](O)[C@H]6O)CC[C@]5(C)[C@H]4CC[C@]3(C)[C@H]1[C@@H]2C [TOMATINE] | 92.9% | – | – | 25% | 0.04 | 2.7% | – | –
Oc1ccc(/C=C/c2cc(O)cc(O)c2)cc1 [RESVERATROL] | 93.5% | – | -9.6% | -24% | -0.13 | – | – | –
CC1(C)CC2C1CCC1(C)OC1CCC2(C)O (centres unmarked) [2-HYDROXY-5 (6)EPOXY-TETRAHYDROCARYOPHYLLENE] | 46.2% | -0.15 | -10.9% | – | – | – | – | –
COc1ccc(C(=O)/C=C/c2ccccc2)cc1 [4'-METHOXYCHALCONE] | 20% | – | -12% | – | -0.16 | – | – | –
CC(C)(c1ccc(O)cc1)c1ccc(O)cc1 [BISPHENOL A] | -35.2% | -0.20 | -15% | – | – | – | – | –
C=C[C@@]1(C)CC(=O)[C@]2(O)[C@@]3(C)[C@@H](O)CCC(C)(C)[C@@H]3[C@H](O)[C@H](OC(C)=O)[C@@]2(C)O1 [COLFORSIN] | 24.8% | 0.14 | 9.4% | – | – | – | – | –
COc1cc(-c2coc3cc(O)c(OC)c(O)c3c2=O)cc(O)c1OC [IRIGENIN] | -15% | -0.43 | -34.9% | – | – | – | – | –
O=Cc1ccccc1O[C@@H]1O[C@H](CO)[C@@H](O)[C@H](O)[C@H]1O [HELICIN] | 18.6% | 0.07 | – | – | – | 4.7% | – | –
CNC(=O)Oc1ccc2c(c1)[C@]1(C)CCN(C)[C@@H]1N2C [PHYSOSTIGMINE SALICYLATE] | -4.89% | – | – | – | -0.12 | -8.6% | – | –
COc1cccc2c1cc([N+](=O)[O-])c1c(C(=O)O)cc3c(c12)OCO3 [ARISTOLOCHIC ACID] | 8.39% | – | – | – | -0.03 | – | – | -1.8%
C1CCN2C[C@@H]3C[C@@H](CN4CCCC[C@@H]34)[C@H]2C1 [SPARTEINE SULFATE] | -14.6% | – | – | – | 0.04 | 3% | – | –
C[C@@H]1C(=O)O[C@H]2[C@H]1CC[C@@]1(C)C=CC(=O)[C@@]3(C)O[C@@]213 [EPOXY (4,5alpha)-4,5-DIHYDROSANTONIN] | 29.7% | – | – | – | -0.03 | -1.8% | – | –
